Data on three compounds can be found in US10576082B2, “ErbB2 regulates autophagic flux to modulate the proteostasis of APP-CTFs in alzheimer's disease” (Academia Sinica, priority 2016, dated 2020).

Data set [1] has as its system HEK293 cells overexpressing ErbB1, ErbB2, CFP-tagged C99, and YFP-tagged NΔE. The data set can be described thus: Lysosome inhibitor rescue after ErbB2 knockdown, Western blotting of HEK293 cells co-expressing ErbB1, ErbB2, CFP-C99, YFP-NΔE. It is filed as cell-based. The settings on record: 10 μM chloroquine or 10 mM ammonium chloride, 37° C., 24 h after 48 h shRNA infection. The procedure:
Clarified lysates containing equivalent amounts of proteins were analyzed by Western blotting. (B, C) HEK293 overexpressing CFP-LC3 cells were infected with lentivirus encoding shRNA targeting LacZ ErbB2, or ErbB2 plus ATG5 for 48 h. The autophagy induction was analyzed by fluorescence confocal microscopy. The number of CFP-LC3 puncta per cell was quantified. The levels of LC3-I, LC3-II, and GAPDH were analyzed by Western blotting. (D, E) HEK293 cells overexpressing ErbB1, ErbB2, CFP-tagged C99, and YFP-tagged NΔE were infected with lentivirus encoding shRNA targeting LacZ (Ctrl), ErbB1, or ErbB2 for 48 h. […] The levels of LC3-1, LC3-II, and p62 were analyzed by Western blotting and quantified by NIH Image J. Conditional media were harvested and processed for determination of secreted Aβ40 using a colourimetric Aβ40-specific ELISA kit. […] The quantitative data are shown as mean±SD from three independent experiments, and were analyzed by Student's t-tests. * p<0.05.
Preparation of cell extracts. […] Following the removal of cell debris by centrifugation, clarified lysates were processed for immunoprecipitation, Western blotting, or quantification of BCA protein content.
Western blotting analysis. Protein concentration was measured with the BCA Protein Assay Kit (Pierce). […]
On the technique in general: Immunoblotting shows a protein as a band on a membrane.

The subject of data set [2] is γ-secretase-mediated proteolysis of C99 (CG cells). The data set can be described thus: Cell-based C99-specific γ-secretase assay (CG cells, Gal4 luciferase reporter). The settings on record: dose-dependent manner. The protocol:
(§1) (A) Adherent CG and NG cells (20,000 cells/well) were treated with 1 μM of the indicated ErbB1/2-selective tyrosine kinase inhibitors in the presence of 1 μg/ml tetracycline at 37° C. for 24 h. The luminescence signals emitted by cells treated with vehicle alone (Ctrl, 0.1% DMSO) were referred to as 100% relative luminescence signals. The luminescence signals generated by γ-secretase-mediated proteolysis of C99 (CG) or NΔE (NG) were determined using the Steady-Glo luciferase assay reagent. (B) HEK293 overexpressing C99-YFP cells were treated with 1 μM of the indicated ErbB1/2 tyrosine kinase inhibitors at 37° C. for 24 h. Clarified lysates were analyzed by Western blotting and quantified by Image J. (C) HEK293 overexpressing ErbB1 ErbB2, CFP-tagged C99, and YFP-tagged NΔE cells were infected with gene-targeting shRNA-encoding lentivirus (shErbB1 or shErbB2) at 37° C. for 48 h. Clarified lysates containing equivalent amounts of proteins were examined by Western blotting and quantified by Image J. (D) CG and NG cells were infected with gene-targeting shRNA-encoding lentivirus at 37° C. for 48 h. Following induction with 1 μg/ml tetracycline for 24 h. […] Data are shown as the mean±SD from three independent experiments, and were analyzed by Student's t-tests. * p<0.05. […]
In general terms: Reporter assays use an easily measured gene product as a stand-in for the process of interest.

The subject of data set [3] is γ-secretase cleavage of CFP-C99 and YFP-NΔE in HEK293 (CCNY) cells. The data set can be described thus: Cell-based C99-NΔE dual γ-secretase assay (CCNY cells). As to conditions: CCNY cell line. The protocol:
To generate a cellular γ-secretase assay that could be used to simultaneously identify cleavage of C99 and NΔE and the production of AICD and NICD, we […] HEK293 cells with pAS2-CCNY and selected transfectants with DMEM medium containing 10% FBS and 250 μg/ml zeocin. […] The CCNY clone was selected and optimized for the cell-based C99-NΔE dual γ-secretase assay.

In data set [4] the test system is zebrafish embryos expressing GFP-tagged C99. The data set can be described thus: Phenotype of C99-expressing zebrafish embryos (curved trunk, Notch-dependent somite development). It is filed as in vivo. The settings on record: zebrafish, in vivo.
The subject of data set [5] is γ-secretase-mediated proteolysis of NΔE (NG cells). The data set can be described thus: Cell-based NΔE-specific γ-secretase assay (NG cells, Gal4 luciferase reporter). As to conditions: dose-dependent manner. The procedure: as §1

Turning to `CCN(CC)CCCC(C)Nc1ccnc2cc(Cl)ccc12` (stereo not drawn) [chloroquine], the “rescue of the reduction in C99 and AICD elicited by ErbB2 knockdown” value in data set [1] is reported as “rescued”.
Take `C[C@H](NC(=O)Cc1cc(F)cc(F)c1)C(=O)N[C@H](C(=O)OC(C)(C)C)c1ccccc1` [DAPT, N—[N-(3,5-difluorophenacetyl-L-alanyl)]-S-phenylglycine t-butyl ester]: the “γ-secretase-dependent luciferase signals in CG cells” value in data set [2] is recorded as “decreased γ-secretase-dependent luciferase signals”. Moreover, the “cleavage of CFP-C99 and YFP-NΔE” value in data set [3] is “completely suppressed”. Further, in data set [4], the “embryo phenotype (trunk, tail, pigmentation; developmental defects)” value is listed as “severe developmental defects”. Besides, in data set [5], the “γ-secretase-dependent luciferase signals in NG cells” value is recorded as “decreased γ-secretase-dependent luciferase signals”.
Regarding `Cl.N` [ammonium chloride], the “rescue of the reduction in C99 and AICD elicited by ErbB2 knockdown” value in data set [1] is recorded as “rescued”.
